{"source": "patent US6589991B1", "about": "“Therapeutic methods employing disulfide derivatives of dithiocarbamates and compositions useful therefor” (Medinox, Inc., priority 1998, dated 2003)", "key": {"[1]": {"details": "cited from earlier work"}, "diabetic-prone BB rats": {"system": "diabetic-prone BB rats", "experimental": "FIG. 4 is a graph illustrating the effects of oral administration of L-proline dithiocarbamate on the survival of diabetic-prone BB rats. The percentage of survival was plotted against the age of the animals over 125 days. The treated group (n=30) (▪) received 5 mg/ml monomeric L-proline dithiocarbamate in drinking water, while the untreated group (n=31) (□) received only water.\nWe tested the effectiveness of the oral administration of (L-PD) for the treatment of diabetic-prone BB rats, an animal model that is widely used for type I insulin-dependent diabetes. Type I diabetes is an autoimmune disease. the pathogenesis of this disease remains unclear although there is ample evidence for increased NO production at early stages of the disease (see, for example, G. M. Piper, Hypertension, 31: 1047-1060, 1998).\nMale, diabetic-prone BB rats (n=61, 250-280 g) were used for the study. The rats were distributed between untreated and L-PD treated groups. The treated group received 5 mg/ml L-PD in drinking water. The treatment started when the animals were 2 months old and continued until they were 4 months old. […] Percent survival was calculated by Product-Limit Survival Analysis Generalized Savage (Mantel-Cox) with p<0.01."}, "Lewis rats": {"system": "Lewis rats", "details": "10 mg/ml in drinking water; scored 0-6 from day 6; n=9", "description": "The test rats (▪) were given L-PD in drinking water (10 mg/ml). Control rats ([formula]) received only distilled water for drinking. Beginning on day 6, the left foot of the animals was scored for the development of arthritic disease using the following system: 0=no redness or inflammation, 1=one area of redness or inflammation on the foot less than 2 mm in diameter, 3=partial redness/inflammation of the footpad, 4=all of footpad red or inflamed, 5=criteria of 4 plus at least one toe red or inflamed, and 6=criteria of 4 plus toes inflamed and deformed (toes curling under footpad).\nAfter the subcutaneous injection in the right footpad of a suspension in mineral oil of heat killed M. tuberculosis on day 1, the Lewis rats were separated into two groups (n=9); one given L-PD (10 mg/ml) in the drinking water and the other given only distilled water. Beginning on day 6, the left foot of the animals was scored for the development of arthritic disease using the following system: 0=no redness or inflammation, 1=one area of redness or inflammation on the foot less than 2 mm in diameter, 3=partial redness/inflammation of the footpad, 4=all of footpad red or inflamed, 5=criteria of 4 plus at least one toe red or inflame, d, and 6=criteria of 4 plus toes inflamed and deformed (toes curling under footpad)."}, "[2]": {"test": "Stability at pH 1 / stomach acid", "assay_type": "physicochemical"}, "[3]": {"test": "Conversion of the dithiocarbamate disulfide to the monomer by L-cysteine (UV spectrum)", "assay_type": "physicochemical", "details": "L-cysteine 5 mg/mL in 60 mM HEPES pH 7.4; disulfide 20 μg/mL; UV 190-340 nm", "experimental": "FIG. 2 is an illustration of the UV spectrum of N-methyl-D-glucamine dithiocarbamate disulfide (MGDD) (20 μg/mL)in the presence of L-cysteine (5 mg/mL). The spectrum was recorded with a scan range of 190 nm to 340 nm.\nFIG. 10 is an illustration of the UV spectrum measured on Hewlett Packard 8451A Diode Array Spectrophotometer. Scanning wavelength 190 nm-340 nm. One mL freshly prepared solution of L-cysteine (5 mg/mL) in 60 mM HEPES buffer, pH=7.4 is transferred into the UV cell (cell length 1 cm) plus 1 μl acetone and the absorbance of this solution is measured as a background. Added 1 μl stock solution of Pyrrolidine dithiocarbamate disulfide (PDD) in acetone to the cuvette—final concentration of PDD is 20 μg/mL. After mixing the UV spectrum is measured immediately.\nA freshly prepared solution of L-cysteine (5 mg/mL) in 60 mM HEPES buffer, pH 7.4 was transferred into a UV cell (cell length 1cm) plus 1 μl acetone and the absorbance of this solution was recorded as background. Immediately after the addition of Pyrrolidine dithiocarbamate disulfide (PDD) (final concentration of 20 μg/mL), the spectrum was recorded with a scan range of 190 nm to 340 nm."}, "[4]": {"assay_type": "physicochemical", "details": "KCN in water; UV spectrum recorded immediately after mixing"}}, "note": "Entries after “also recorded” stand apart in the source; their conditions may differ."}
{"smiles": "S=C(S)N1CCCC1", "note": "[Pyrrolidine dithiocarbamate]", "values": [{"measurement": "stability in the presence of stomach acid", "setting": "[1]", "result": "breaks down to ineffective species"}]}
{"smiles": "NC(=S)S.O=C(O)[C@@H]1CCCN1", "note": "[L-PD, L-proline dithiocarbamate]", "values": [{"measurement": "animals surviving at the end of the experiments", "setting": "diabetic-prone BB rats; 5 mg/ml in drinking water for 2 months (age 2 to 4 months), untreated 10 percent, p<0.01", "result": "more than 30%"}, {"measurement": "improvement in survival compared to the untreated group", "setting": "diabetic-prone BB rats; 5 mg/ml in drinking water, n=30, over 125 days", "result": "statistically significant"}, {"measurement": "effect on water consumption", "setting": "diabetic-prone BB rats; chronic treatment, 5 mg/ml in drinking water", "result": "no apparent effect"}, {"measurement": "severity score of the inflammation in the left footpad", "setting": "Lewis rats", "result": "significantly reduced"}]}
{"smiles": "S=C(SSC(=S)N1CCCC1)N1CCCC1", "note": "[PDD, Pyrrolidine dithiocarbamate disulfide]", "values": [{"measurement": "time stable at pH 1", "setting": "[2]", "result": "≤ 24", "unit": "hours"}, {"measurement": "conversion to the monomeric dithiocarbamate on addition of L-cysteine", "setting": "[3]", "result": "readily be converted into its starting material, pyrrolidine dithiocarbamate"}, {"measurement": "reaction with potassium cyanide", "setting": "[4]", "result": "fast reaction"}]}
{"smiles": "CN(C[C@H](O)[C@@H](O)[C@H](O)[C@H](O)CO)C(=S)SSC(=S)N(C)C[C@H](O)[C@@H](O)[C@H](O)[C@H](O)CO", "note": "[MGDD, N-methyl-D-glucamine dithiocarbamate disulfide]", "values": [{"measurement": "conversion to the monomeric dithiocarbamate on addition of L-cysteine", "setting": "[3]", "result": "readily be converted into its starting material, MGD; also recorded: identical to that of N-methyl-D-glucamine dithiocarbamate"}, {"measurement": "reaction with potassium cyanide", "setting": "[4]", "result": "fast reaction"}]}
